Results published in paper PMC9691367, “The PROTAC selectively degrading Bcl-xL represents a novel Hedgehog pathway inhibitor with capacity of combating resistance to Smoothened inhibitors while sparing bone growth” (Theranostics, 2022).

How the values were obtained:
Bcl-xL = Bcl-xL (Homo sapiens, UniProt Q07817); test: Competitive fluorescence polarization assay, Bcl-xL / FAM-Bad; format: binding; details: Bcl-xL 5 nM, FAM-Bad 5 nM
Experimental: (§1) Competitive fluorescence polarization assays were carried out in black-walled plates in assay buffer (20 mM Na2HPO4 ·12H2O, 20 mM NaH2PO4·12H2O, 1 mM EDTA, 50 mM NaCl, 0.05% PF-68). The use of protein/peptide probe pairs was as follows: Bcl-xL (5 nM) and FAM-Bad (5 nM), Bcl-2 (100 nM) and FAM-Bax (5 nM), Mcl-1 (100 nM) and FAM-Bim (5 nM). Assay buffer, proteins, drugs, and peptides were added to the assay plates sequentially. The assay plates were slightly shaken for 3 min and incubated for 30 min at room temperature. The fluorescence polarization was measured on a Synergy 2 reader (BioTek).

Mcl-1 = Mcl-1 (Homo sapiens, UniProt Q07820); test: Competitive fluorescence polarization assay, Mcl-1 / FAM-Bim; format: binding; details: Mcl-1 100 nM, FAM-Bim 5 nM
Chain of Mcl-1 (Q07820 whole entry, species assumed): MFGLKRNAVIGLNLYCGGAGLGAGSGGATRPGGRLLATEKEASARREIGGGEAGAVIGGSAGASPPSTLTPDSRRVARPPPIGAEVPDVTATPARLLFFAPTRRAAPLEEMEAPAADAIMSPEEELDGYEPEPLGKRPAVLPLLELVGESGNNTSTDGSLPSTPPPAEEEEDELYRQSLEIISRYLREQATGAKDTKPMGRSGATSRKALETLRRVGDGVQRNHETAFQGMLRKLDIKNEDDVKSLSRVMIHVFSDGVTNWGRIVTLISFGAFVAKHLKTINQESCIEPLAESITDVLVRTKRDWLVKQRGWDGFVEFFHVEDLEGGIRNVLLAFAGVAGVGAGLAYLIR
Experimental: as §1

Bcl-xL/CRBN = molecular target: T1, Bcl-xL/CRBN (Homo sapiens, UniProt Q07817+Q96SW2); test: HTRF assay for ternary complex formation; format: binding
T1 construct: purchased Cisbio 63ADK000CB37PEG
T1 sequence (Q07817 whole entry, species assumed): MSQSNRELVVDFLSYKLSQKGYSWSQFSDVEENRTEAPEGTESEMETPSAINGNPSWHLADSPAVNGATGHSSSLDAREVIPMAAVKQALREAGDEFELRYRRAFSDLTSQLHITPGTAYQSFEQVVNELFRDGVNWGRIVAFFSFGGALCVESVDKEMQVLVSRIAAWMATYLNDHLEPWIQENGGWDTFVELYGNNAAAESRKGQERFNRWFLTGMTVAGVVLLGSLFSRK
T1 sequence (Q96SW2 whole entry, species assumed): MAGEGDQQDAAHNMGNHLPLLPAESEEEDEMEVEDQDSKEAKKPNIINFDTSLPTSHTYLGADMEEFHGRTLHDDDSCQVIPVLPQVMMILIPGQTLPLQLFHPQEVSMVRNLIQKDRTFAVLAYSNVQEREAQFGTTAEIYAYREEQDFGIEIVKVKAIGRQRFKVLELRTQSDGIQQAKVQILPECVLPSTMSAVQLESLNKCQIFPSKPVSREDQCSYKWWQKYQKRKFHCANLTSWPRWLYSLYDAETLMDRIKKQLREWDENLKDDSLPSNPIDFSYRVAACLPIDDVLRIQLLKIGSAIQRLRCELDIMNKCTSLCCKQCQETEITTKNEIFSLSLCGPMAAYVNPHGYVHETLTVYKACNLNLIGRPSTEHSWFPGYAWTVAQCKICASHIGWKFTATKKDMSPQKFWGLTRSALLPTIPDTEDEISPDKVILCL
Experimental: Bcl-xL/CRBN ternary HTRF assay was used to monitor ternary complex formation between target protein, PROTAC and E3 ligase. Bcl-xL/CRBN PROTAC BINDING ASSAY KITS was purchased from Cisbio (#63ADK000CB37PEG). 200 nL compounds were transferred into 384 assay plate, followed by centrifuging at 1000 RPM. Then 5 µL Bcl-xL and CRBN protein were added into each assay well. After incubation at 25 °C for 15 min, 10 µL Tag2-Eu&Tag1-d2 working solution was added into each assay well and incubated 25 °C for 120 min. The Relative HTRF value was read with BMG (PHERAstar FSX).

Bcl-2 and Mcl-1 = test: Western blot of Bcl-2 and Mcl-1 in NIH-3T3 cells; format: cell-based; details: 1 µM
Experimental: Cells were lysed in cell lysis buffer (50 mM Tris pH 8.0, 150 mM NaCl, 10% glycerol, 1 mM EDTA, 50 mM NaF, and 0.1% NP-40) supplemented with protease and phosphatase inhibitors. Total protein extracts of tissues were generated in radioimmunoprecipitation (RIPA) assay lysis buffer containing complete protease and phosphatase inhibitor cocktail. Protein content was quantified using the Pierce BCA Protein Assay Kit (#23225, Thermo Fisher Scientific). The proteins were separated by SDS-PAGE, electrophoretically transferred to polyvinylidene difluoride (PVDF) blotting membranes (#LC2002, Thermo Fisher Scientific), and subjected to routine immunoblot analysis with primary antibodies as follows: anti-Bcl-2 (#15071), anti-Mcl-1 (#94296), anti-VHL (#68547), anti-CRBN (#71810), and anti-Sufu (#2522) were obtained from Cell Signaling Technology (Danvers, Massachusetts, USA); anti-Bcl-xL (#ab32370), anti-Gli1 (#ab134906), and anti-Smoothened (#ab236465) were obtained from Abcam (Cambridge, CB2 0AX, UK); anti-GAPDH (#60004-1-Ig) and anti-β-tubulin (#10094-1-AP) were purchased from Proteintech Group, Inc. (Rosemont, IL 60018, USA). The results were quantified by densitometry using ImageJ software (NIH).

[1] = tested on: Hh pathway (Gli-luciferase) in light II cells; test: Dual luciferase reporter assay, Gli-luciferase provoked by SAG in light II cells; format: cell-based; details: SAG 100 nM, 36 h, read-out: IC50 value inhibiting the Gli-luciferase activity provoked by SAG
Experimental: (§2) Cells seeded in 96-well plates were treated with various treatments as indicated. The luciferase activity in the cell lysates was measured using Dual-Luciferase Reporter Assay System (Promega, Madison, WI, USA) according to the manufacturer's instructions in a luminometer (Molecular Devices, Sunnyvale, CA). The firefly luciferase values were normalized to Renilla values.

NF-κB signaling pathway = test: NF-κB luciferase reporter assay in 293T cells; format: cell-based; details: TNF-α 10 ng/mL, 6 h, SIAIS361034 10 μM, BAY 11-7082 20 μM
Experimental: as §2, with “values. […]” for “values.”
Data represent mean ± SD (n = 3). (B) NF-κB luciferase analysis of the effect of SIAIS361034 on NF-κB signaling pathway in 293T cells.The 293T cells were transfected with NF-κB luciferase reporter and Renilla-TK plasmids and […]
μM) for 6 h. Data represent mean ± SD (n = 3). […]
Data represent mean ± SD (n = 3).
(1 picture or pasted object on this page, not shown here)

[2] = tested on: hair growth and Hh pathway activity in skin; test: Depilatory mouse model; format: in vivo
Experimental: For Depilatory model studies, male C57BL/6J mice (7 to 8 weeks of age) were purchased from Shanghai Lingchang Biotechnology Co. (Shanghai, China). After 2 days of acclimation, only healthy mice were used in the experiment. The back skin of the anesthetized mice was shaved and depilated using the depilatory Nair (Church & Dwight Co., Inc.). After 4 days, the depilated mice were randomized into groups for treatments as indicated. The back skin phenotypes were recorded by taking pictures every 3 days. Skin tissues were harvested 6 h after the last dosage to examining Gli1 mRNA expression as well as Gli1 and Bcl-xL protein levels.

[3] = tested on: bone growth of young mice; test: Bone growth of young mice (body weight, Micro-CT, H&E, IHC); format: in vivo, mouse
Experimental: Skeleton Micro-CT images of mice were taken under anesthesia. The femurs were fixed and stored in 4% PFA at 4 °C. Mice and femurs were scanned using Inveon PET-CT (Siemens). Bone tissues were computed with Inveon Acquisition Workplace (IAW). Image data were visualized and analyzed by Inveon Viewer.
Femurs were fixed in 4% PFA and decalcified in 14% EDTA for 2 weeks at 4 °C. Bone tissues were embedded in paraffin. Thin sections were stained with hematoxylin and eosin (H&E) according to the manufacturer's instructions. For immunohistochemistry (IHC), paraffin-embedded sections of femurs were baked at 60 °C for 20 min, deparaffinized by xylene for 25 min, rehydrated through ethanol series, and incubated with citrate buffer at 95 °C for 20 min for antigen retrieval. Sections were incubated with the primary antibodies as indicated overnight at 4 °C, followed by goat anti-rabbit secondary antibody. The primary antibodies used in this study include Bcl-xL (1:2000, ab178844, Abcam) and Gli1 (1:100, 101156-T10, Sino Biological).

[4] = tested on: bone growth of young mice; test: as above; format: in vivo, mouse; details: 6-week-old mice treated P12 to P16

Chain of Bcl-xL (Q07817 whole entry, species assumed): as the sequence (Q07817 whole entry, species assumed) above

CC1(C)CCC(c2ccc(Cl)cc2)=C(CN2CCN(c3ccc(C(=O)NS(=O)(=O)c4ccc(NCCCN5CCN(CCCC#Cc6cccc7c6CN(C6CCC(=O)NC6=O)C7=O)CC5)c(S(=O)(=O)C(F)(F)F)c4)cc3)CC2)C1 (stereo not drawn) [SIAIS361034]
Ki (Bcl-xL): 37.3 nM | Ki (Mcl-1): > 10 µM | Ternary complex formation with Bcl-xL and CRBN E3 ligase (Bcl-xL/CRBN): could form a stable ternary complex | levels of Bcl-2 and Mcl-1 (Bcl-2 and Mcl-1): did not change the levels of Bcl-2 and Mcl-1 | IC50 [1]: 120 nM | NF-κB luciferase activity activated by TNF-α (NF-κB signaling pathway): no inhibitory activity | hair growth during depilation-induced hair regeneration ([2]; male C57BL/6J mice, administered after 4 days of depilation): significantly retarded hair growth | Hh activity in skin (Gli1 mRNA) ([2]; skin harvested 6 h after the last dosage, RT-qPCR): suppressed the Hh activity | Gli1 and Bcl-xL protein levels in skin tissues ([2]; skin harvested 6 h after the last dosage, western blot): suppressed the expression of Gli1 and Bcl-xL | columnar organization of chondrocytes in the growth plate (H&E) ([3]; cross sections of the femur, mice treated P12 to P16): not destroyed | skeleton (Micro-CT) ([3]; mice at 6 weeks of age, treated P12 to P16): no abnormalities in the skeleton | growth plate of femurs (Micro-CT) compared with Vehicle ([3]; mice treated P12 to P16): no significant difference | levels of Bcl-xL in femurs (IHC) ([3]; mice treated P12 to P16): No change | expression levels of Gli1 in femurs (IHC) ([3]; mice treated P12 to P16, compared with Vehicle): no alteration | platelets and other indispensable blood cells at the end of the experiment [4]: no side effects
